The supplement of paper PMC10307832

How the values were obtained:
Assay in all cases: relative viability (nuclei count vs DMSO), 5 days (fraction); higher = more cells survive
Afatinib + Olaparib = compound: CN(C)C/C=C/C(=O)Nc1cc2c(Nc3ccc(F)c(Cl)c3)ncnc2cc1O[C@H]1CCOC1 [Afatinib] + O=C(c1cc(Cc2n[nH]c(=O)c3ccccc23)ccc1F)N1CCN(C(=O)C2CC2)CC1 [Olaparib] (partner 8 µM)
Method in brief: (§1)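 Relative viability is defined as nuclei in treated wells over nuclei in vehicle wells. Duplicate plates were run and medians reported. Lung cancer cell lines in 1536-well plates were dosed by pin tool one day after seeding, with one drug or with a fixed anchor-drug dose plus five library-drug doses (not always all listed) in √10 steps, and nuclei were counted after 5 days.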

Afatinib + AZD7762 = compound: CN(C)C/C=C/C(=O)Nc1cc2c(Nc3ccc(F)c(Cl)c3)ncnc2cc1O[C@H]1CCOC1 [Afatinib] + NC(=O)Nc1cc(-c2cccc(F)c2)sc1C(=O)N[C@H]1CCCNC1 [AZD7762] (partner 0.2 µM)
Method in brief: as §1

Afatinib + Lapatinib = compound: CN(C)C/C=C/C(=O)Nc1cc2c(Nc3ccc(F)c(Cl)c3)ncnc2cc1O[C@H]1CCOC1 [Afatinib] + CS(=O)(=O)CCNCc1ccc(-c2ccc3ncnc(Nc4ccc(OCc5cccc(F)c5)c(Cl)c4)c3c2)o1 [Lapatinib] (partner 2 µM)
Method in brief: as §1

Afatinib + Decitabine = compound: CN(C)C/C=C/C(=O)Nc1cc2c(Nc3ccc(F)c(Cl)c3)ncnc2cc1O[C@H]1CCOC1 [Afatinib] + Nc1ncn([C@H]2C[C@H](O)[C@@H](CO)O2)c(=O)n1 [Decitabine] (partner 2 µM)
Method in brief: as §1

Cell Line | relative viability (Afatinib + Olaparib; first compound 0.005 µM) | relative viability (Afatinib + Olaparib; first compound 0.01581 µM) | relative viability (Afatinib + Olaparib; first compound 0.05 µM) | relative viability (Afatinib + Olaparib; first compound 0.1581 µM) | relative viability (Afatinib + Olaparib; first compound 0.5 µM) | relative viability (Afatinib + AZD7762; first compound 0.005 µM) | relative viability (Afatinib + AZD7762; first compound 0.01581 µM) | relative viability (Afatinib + AZD7762; first compound 0.05 µM) | relative viability (Afatinib + AZD7762; first compound 0.1581 µM) | relative viability (Afatinib + AZD7762; first compound 0.5 µM) | relative viability (Afatinib + Lapatinib; first compound 0.005 µM) | relative viability (Afatinib + Lapatinib; first compound 0.01581 µM) | relative viability (Afatinib + Lapatinib; first compound 0.05 µM) | relative viability (Afatinib + Lapatinib; first compound 0.1581 µM) | relative viability (Afatinib + Lapatinib; first compound 0.5 µM) | relative viability (Afatinib + Decitabine; first compound 0.005 µM) | relative viability (Afatinib + Decitabine; first compound 0.01581 µM) | relative viability (Afatinib + Decitabine; first compound 0.05 µM) | relative viability (Afatinib + Decitabine; first compound 0.1581 µM) | relative viability (Afatinib + Decitabine; first compound 0.5 µM)
201T | 0.846 | 0.826 | 0.752 | 0.78 | 0.854 | 0.483 | 0.626 | 0.599 | 0.667 | 0.62 | 1.07 | 1.04 | 0.904 | 1.01 | 1.08 | 0.857 | 0.867 | 0.844 | 0.78 | 0.822
A-427 | 0.79 | 0.759 | 0.779 | 0.776 | 0.789 | 0.587 | 0.705 | 0.823 | 0.676 | 0.698 | 1.09 | 1.09 | 1.01 | 1.03 | 1.04 | 0.556 | 0.594 | 0.551 | 0.502 | 0.511
ABC-1 | 0.779 |  | 1.04 | 1.04 | 0.561 | 0.631 | 0.717 | 0.666 | 0.662 | 1.09 | 1.15 | 1.16 | 1.32 | 0.932 | 1.05 | 1.09 |  | 1.26 | 0.928 | 1.05
BEN | 1.23 | 1.23 | 1.18 | 1.11 | 1.08 | 0.618 | 0.704 | 0.648 | 0.642 | 0.636 | 0.7 | 0.694 | 0.832 | 0.705 | 0.804 | 0.727 | 0.707 | 0.666 | 0.736 | 0.919
CAL-12T | 0.763 | 0.668 | 0.616 | 0.47 | 0.497 | 0.631 | 0.594 | 0.546 | 0.491 | 0.505 | 0.694 | 0.757 | 0.714 | 0.546 | 0.638 |  |  |  |  | 
COR-L23 | 0.325 | 0.325 | 0.358 | 0.369 | 0.366 |  |  |  |  |  | 1.22 | 0.916 | 0.877 | 0.933 | 1.11 | 0.504 | 0.436 | 0.468 | 0.47 | 0.529
COR-L 105 | 0.737 | 0.483 | 0.422 | 0.331 | 0.34 |  |  |  |  |  | 0.311 | 0.385 | 0.344 | 0.31 | 0.343 | 0.552 | 0.433 | 0.415 | 0.338 | 0.356
Calu-6 | 0.565 | 0.565 | 0.607 | 0.573 | 0.545 |  |  |  |  |  | 1.15 | 1.12 | 1.08 | 1.09 | 1.12 |  |  |  |  | 
ChaGo-K-1 | 0.466 | 0.439 | 0.447 | 0.396 | 0.397 | 0.801 | 0.868 | 0.827 | 0.871 | 0.827 |  |  |  |  |  | 0.558 | 0.538 | 0.525 | 0.525 | 0.469
EKVX | 0.602 | 0.687 | 0.534 | 0.283 | 0.227 | 0.638 | 0.368 | 0.373 | 0.315 | 0.865 | 0.191 | 0.18 | 0.188 | 0.208 | 0.198 | 0.248 | 0.208 | 0.218 | 0.159 | 0.171
EMC-BAC-2 | 0.53 | 0.501 | 0.595 | 0.554 | 0.531 | 1.07 | 1.17 | 1.14 | 1.06 | 1.19 | 0.888 | 0.858 | 0.892 | 0.941 | 0.91 | 0.968 | 0.924 | 0.98 | 0.901 | 1.02
EPLC-272H | 0.567 | 0.776 | 0.727 | 0.734 | 0.595 | 0.139 | 0.229 | 0.175 | 0.187 | 0.168 | 0.941 | 0.826 | 0.941 | 0.863 | 0.924 | 0.355 | 0.328 | 0.359 | 0.309 | 0.348
H3255 | 0.332 | 0.273 | 0.277 | 0.277 | 0.236 | 0.405 | 0.284 | 0.278 | 0.259 | 0.287 | 0.244 | 0.227 | 0.242 | 0.215 | 0.215 | 0.256 | 0.167 | 0.179 | 0.189 | 0.172
HARA | 0.688 |  | 0.344 | 0.462 | 0.391 |  |  | 0.225 | 0.217 | 0.287 | 0.727 | 0.668 | 0.608 | 0.688 | 0.888 | 0.548 |  | 0.413 | 0.325 | 0.349
HCC-15 | 0.662 | 0.765 | 0.744 | 0.668 | 0.722 | 1.14 | 1.39 | 1.32 | 1.19 | 1.05 | 0.84 | 0.92 | 0.859 | 0.859 | 0.82 | 0.75 | 0.622 | 0.625 | 0.594 | 0.645
HCC-44 | 0.958 | 0.921 | 0.974 | 1 | 1.01 | 0.98 | 0.973 | 1.07 | 1 | 0.959 | 1.09 | 1.03 | 0.953 | 0.97 | 1.02 | 0.99 | 0.96 | 0.981 | 0.968 | 1.07
HCC-78 | 0.792 | 0.932 | 0.852 | 0.717 | 0.667 | 0.693 | 0.542 | 0.509 | 0.478 | 0.449 | 0.838 | 0.661 | 0.844 | 0.659 | 0.883 | 0.726 | 0.607 | 0.616 | 0.635 | 0.651
HCC-366 | 0.299 | 0.38 | 0.391 | 0.3 | 0.367 | 0.194 | 0.285 | 0.259 | 0.337 | 0.264 | 1.03 | 1.06 | 1.03 | 1.05 | 1.02 | 0.293 | 0.407 | 0.383 | 0.324 | 0.34
